Results: patent US11952382B1, “2-benzo-[3,4-b]quinolino-[b,g]indeno[1,2:3,4]fluoreno-[1,2-d]oxonine-24-flouro-5,11,16,21-tetraone as an antimicrobial compound” (KING FAISAL UNIVERSITY, priority 2023, dated 2024)

Experiments:
Format in all cases: cell-based
Details in all cases: after 10, 20, 40 and 60 minutes at all dilutions 1:100, 1:200, 1:400, 1:800
Pseudomonas aeruginosa = assay: Antimicrobial screening by agar dilution, Pseudomonas aeruginosa
Protocol: (§1) The antibacterial properties of the synthesized compound 2-benzo-[3,4-b]quinolino-[b,g]indeno[1′,2′:3,4]fluoreno-[1,2-d]oxonine-24-flouro-5,11,16,21-tetraone were studied by the method of agar dilution. Test solutions of each compound was prepared in concentration of 1% using dimethylformamide as a solvent then they are diluted in physiological solution to obtain the final experimental dilutions 1:100, 1:200, 1:400, 1:800. The effect of these substances are compared with furacillin in a controllable study. The testing microbes used were gram positive bacteria Staphylococcus aureus, gram negative bacteria Pseudomonas aeruginosa and Escherichia coli and Candida albicans fungus. The experiments used for this survey were meat-pentonlu agar (EPA) for cultivation of bacteria and Saburo environment for the fungus. Each experiment used 1 mL of test solution on each plate […]. Two drops of emulsified with microbes feel were added. All experimental samples were taken from the agar after 10, 20, 40, 60 minutes in the environment on the basis of Patrk planted. The bacteria were cultivated at a temperature of 37° C. for 1 day and the mushroom was kept in a thermostat for 2 hours at a temperature of 28° C. Then results were checked.

Candida albicans = assay: Antimicrobial (antifungal) screening by agar dilution, Candida albicans
Protocol: as §1

Escherichia coli = assay: Antimicrobial screening by agar dilution, Escherichia coli
Protocol: as §1

Staphylococcus aureus = assay: Antimicrobial screening by agar dilution, Staphylococcus aureus
Protocol: as §1

Measured: inhibition activity

O=C1Oc2nc3ccc(F)cc3cc2-c2c(c3c4ccccc4c(=O)c3c3c2c(=O)c2ccccc23)C(=O)c2ccccc21 [2-benzo-[3,4-b]quinolino-[b,g]indeno[1′,2′:3,4]fluoreno-[1,2-d]oxonine-24-flouro-5,11,16,21-tetraone]
highest inhibition activity: all assays above
